This is an account of results in PMC8752837, “Structural basis of BAK activation in mitochondrial apoptosis initiation” (Nature Communications, 2022).

Changes are numbered by the printed parent chain.

In assay [1] the test system is BCL2allKO HCT116 cells reconstituted with Dox-inducible mC-BAK. Briefly: Dox-induced cell death by IncuCyte imaging of SYTOX Green uptake (autoactivation). It is filed as cell-based, human. The following applies: qVD 40 µM. From the text:
For mammalian cell culture experiments, we cloned the full length human BAK cDNA into pCR 2.1 TOPO vector, mutated BAK as needed, and PCR amplified the BAK gene for cloning into the BamHI and NotI sites of pRETROX mCherry vector for retroviral transduction. Amplification and mutagenesis primers are included in Supplementary Table 4. To test direct BAK activation and BAK autoactivation in cells, we produced cells stably expressing mCherry-human BAK (mC-BAK) ± human BID (BID) on a genetic background devoid of the entire BCL-2 family repertoire (all 17 BCL-2 genes), BCL2allKO HCT116, as described by the Xu Luo laboratory. […] To enrich for populations of cells that express mC-BAK, we treated cells with low Dox dose (25 ng/mL) and fluorescence-activated cell sorted (FACS) the mCherry positive cells. […]
We seeded cells in 24-well (100,000 cells/well), 96-well (15,000 cells/well), or 384-well (10,000 cells/well) plates coated with 10 µg/mL fibronectin. After ≥24 h of attachment and recovery, we induced cell death with Dox (up to 1000 ng/mL) and monitored SYTOX Green (25 nM) uptake by Incucyte imaging. […] We monitored Incucyte imaging for up to 48 h, followed by endpoint FACS analysis to measure the extent of cell death based on SYTOX Green positive cells on FACSCalibur systems (BD Biosciences). As expected, cells with low mCherry fluorescence were refractory to cell death.

Another assay deals with T1, Human BAK-∆TM-His6 (BAK) (Homo sapiens, UniProt Q16611).
T1 construct: C-terminus truncated recombinant human BAK containing C-terminal 6× histidine tag (MEAS-BAK); made in house; host or cells: E. coli T7 Express pLac I/Y
T1 sequence (Q16611 1-186 limits assumed): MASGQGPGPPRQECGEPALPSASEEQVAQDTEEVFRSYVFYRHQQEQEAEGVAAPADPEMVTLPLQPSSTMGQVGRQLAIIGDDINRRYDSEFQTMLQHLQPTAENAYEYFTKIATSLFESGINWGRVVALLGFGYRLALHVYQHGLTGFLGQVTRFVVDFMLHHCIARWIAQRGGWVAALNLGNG
Briefly: Liposome permeabilization assay (ANTS/DPX dye release from LUVs): activation of WT BAK by BH3 peptides. The settings on record: 50 nM BAK; for BAK activation or inhibition in liposome permeabilization: disubstituted BID-like BH3 peptides, Fig. 5c. Format: biochemical. As for the experimental part: We performed liposome permeabilization assays as previously described[43]–[46]. […] We mixed the lipid film in ANTS/DPX solution by vortexing and sonication (~15 min) followed by extrusion through polycarbonate membrane of 2 μm pore size (Avanti Polar lipids) to generate homogenous large unilamellar vesicles (LUVs). We separated LUVs from free ANTS/DPX by S500 size exclusion chromatography and stored them at 4 °C in the dark. We prepared peptide and protein dilutions in 96-well black flat bottom plates (Costar) kept on ice. […] We quantified liposome permabilization by integrating area under curve (AUC) of normalized traces based on the Simpson’s equation, and analyzed that data in Excel and GraphPad Prism. AUC measurements reflect the kinetic and extent of liposome permeabilization and provide quantitative means for comparison between different experimental conditions (e.g., BAK mutants with gross or partial variation in activity).

Another assay addresses T2, I81R(3) BAK (Homo sapiens, UniProt Q16611, I81R).
T2 construct: C-terminus truncated recombinant human BAK containing C-terminal 6× histidine tag (MEAS-BAK); made in house; host or cells: E. coli T7 Express pLac I/Y
T2 sequence (Q16611 1-186 I81R limits assumed): T1 sequence (Q16611 1-186 limits assumed) with I81R
The assay can be described thus: Liposome permeabilization assay: BH3 peptide activation of I81R(3) BAK receptor. The following applies: 200 nM protein receptor; rebuttal, earlier Figure 7c; read-out: EC50 in liposome permeabilization upon direct activation of I81R BAK. Format: biochemical. As for the experimental part: We next compared activation of mutant BAK receptors by WT BID BH3 and WT BAK BH3 peptide ligands. At concentrations above 1 µM, both peptide ligands would activate WT or V74A(1) BAK (Supplementary Figs. 3e, 4d, e, and Supplementary Table 1).
We performed liposome permeabilization assays as previously described[43]–[46]. […] (nickel salt) [DGS NTA(Ni), 2.5 μM final concentration in each assay] (Avanti Polar Lipids). We prepared 12.5 mM fluorophore; 8-aminonaphthalene-1, 3, 6-trisulfonic acid, disodium salt (ANTS) and 45 mM quencher; p-xylene-bis-pyridiniumbromide (DPX) in LUV buffer (10 mM HEPES pH 6.8, 200 mM KCl and 5 mM MgCl2). We mixed the lipid film in ANTS/DPX solution by vortexing and sonication (~15 min) followed by extrusion through polycarbonate membrane of 2 μm pore size (Avanti Polar lipids) to generate homogenous large unilamellar vesicles (LUVs). We separated LUVs from free ANTS/DPX by S500 size exclusion chromatography and stored them at 4 °C in the dark. We prepared peptide and protein dilutions in 96-well black flat bottom plates (Costar) kept on ice. ANTS release from permeabilized liposomes causes an increase in fluorescence, which we monitored at 37 °C for 90 min using a CLARIOSTAR microplate reader (BMG Labtech) set at excitation and emission wavelengths of 360 and 530 nm, respectively. We normalized the data relative to maximum and minimum fluorescence induced by 3% CHAPS and buffer controls, respectively. We quantified liposome permabilization by integrating area under curve (AUC) of normalized traces based on the Simpson’s equation, and analyzed that data in Excel and GraphPad Prism. AUC measurements reflect the kinetic and extent of liposome permeabilization and provide quantitative means for comparison between different experimental conditions (e.g., BAK mutants with gross or partial variation in activity). Variability in permeabilization of different liposomes is common and our analyses compare among conditions investigated with the same liposomes. […]

The target of another assay is T3, I81R BAK (Homo sapiens, UniProt Q16611, I81R).
T3 construct: To generate tevBAK (residues 22–186), we cleaved off the histidine tag with TEV protease; His tag (vector pNIC28-Bsa4) (N, cleaved yes); made in house; host or cells: E. coli T7 Express pLac I/Y
T3 sequence (Q16611 22-186 I81R): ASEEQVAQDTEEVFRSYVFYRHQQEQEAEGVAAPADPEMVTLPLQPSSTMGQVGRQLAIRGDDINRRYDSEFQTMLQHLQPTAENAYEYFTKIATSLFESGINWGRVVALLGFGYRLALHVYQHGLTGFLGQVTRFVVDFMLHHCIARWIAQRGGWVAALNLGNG
Briefly: Isothermal titration calorimetry with mutant BAK. It is filed as binding. The following applies: rebuttal, earlier Figures 7c, S10d. The protocol: (§1) Protein samples were exchanged into 20 mM HEPES, 100 mM NaCl and 1 mM TCEP prior to the experiment. Titrations were performed by first injecting 0.5 μl of 250 or 500 µM BID BH3 peptides into a solution of 20 or 50 µM BAK followed by additional 2 μl injections. […] Results were analyzed using Origin software (OriginLab) provided by MicroCal. Binding constants (KD) and thermodynamic parameters were calculated from the average of two or three individual titrations by fitting the data to a single site binding model using a nonlinear least-squares fitting algorithm.

For a further assay, the target named is T4, MEAS-BAK-His6 (Homo sapiens, UniProt Q16611).
T4 construct: C-terminus truncated recombinant human BAK containing C-terminal 6× histidine tag (MEAS-BAK); made in house; host or cells: E. coli T7 Express pLac I/Y
T4 sequence (Q16611 1-186 limits assumed): T1 sequence (Q16611 1-186 limits assumed)
The assay can be described thus: Surface plasmon resonance. It is filed as binding. The following applies: 20 °C; for Kd: MEAS-BAK-His6 captured on Ni-NTA HisCap chip, three-fold peptide dilution series injected in triplicate, read-out: SPR KD. As for the experimental part: We conducted SPR experiments at 20 °C using a Pioneer FE optical biosensor (ForteBio) amd histidine-tagged MEAS-BAK-His6 immobilized on polycarboxylate hydrogel-coated gold chips preimmobilized with nitrilotriacetic acid (HisCap chips; ForteBio). We primed the chip in chelating buffer (10 mM HEPES pH 7.4, 150 mM NaCl, 50 µM EDTA, 0.005% Tween20) and preconditioned it at 10 µL/min with three 60 s injections of wash buffer (10 mM HEPES pH 8.3, 150 mM NaCl, 350 mM EDTA, 0.05% Tween20) and one 60 s injection of chelating buffer before charging with a 60 s injection of 500 µM NiCl2 in chelating buffer. After priming into binding buffer (20 mM HEPES pH 8.0, 200 mM NaCl, 1 mM TCEP, 0.01% Tween20), we injected BAK to achieve ~500 RU of captured protein. As reference cell, we charged one flow cell on the chip with Ni^2+ without adding protein. […] We included a series of buffer-only (blank) injections throughout the experiment to account for instrumental noise. […] We processed, double-referenced, solvent corrected, and analyzed the data using the software package Qdat (version 4.3.1.2, ForteBio). We determined kinetic rate constants and affinities by fitting the data to a 1:1 interaction model.
In general terms: In SPR one partner is held on a chip, and binding of the other changes the refractive index at the surface.

Another assay has as its target T5, WT tevBAK (Homo sapiens, UniProt Q16611).
T5 construct: To generate tevBAK (residues 22–186), we cleaved off the histidine tag with TEV protease; His tag (vector pNIC28-Bsa4) (N, cleaved yes); made in house; host or cells: E. coli T7 Express pLac I/Y
T5 sequence (Q16611 22-186): T3 sequence (Q16611 22-186 I81R) with R60I
Briefly: Isothermal titration calorimetry. It is filed as binding. The settings on record: for % bound: estimated as ([BID BH3] × 100)/(KD + [BID BH3]). As for the experimental part:
as §1

Where [2] appears, read: 25 °C, single site binding model.

In the case of `CC(C)[C@H](NC(=O)c1ccc2ccccc2n1)C(=O)N[C@@H](CC(=O)O)C(=O)COc1c(F)cccc1F` [qVD, reference compound], the “effect on cell death” value in assay [1] is “blocked cell death”.

Take `CC[C@H](C)[C@H](NC(=O)[C@H](CC(N)=O)NC(=O)[C@H](CCCNC(=N)N)NC(=O)[C@@H](NC(=O)[C@@H](NC(=O)[C@H](CC(=O)O)NC(=O)[C@H](CCC(=O)O)NC(C)=O)[C@@H](C)CC)[C@@H](C)CC)C(=O)N[C@@H](C)C(=O)N[C@@H](CCCNC(=N)N)C(=O)N[C@@H](Cc1c[nH]cn1)C(=O)N[C@@H](CC(C)C)C(=O)N[C@@H](C)C(=O)N[C@@H](CCC(N)=O)C(=O)N[C@@H](CCSC)C(=O)NCC(=O)N[C@@H](CC(=O)O)C(=O)N[C@@H](CO)C(=O)N[C@@H](CCSC)C(=O)N[C@@H](CC(=O)O)C(=O)N[C@@H](CCCNC(=N)N)C(=O)N[C@@H](CO)C(=O)N[C@@H](Cc1c[nH]c2ccccc12)C(N)=O` [M(3)W(5)]: the EC50 is 79 ± 49 nM on Human BAK-∆TM-His6 (BAK) (EC50 from AUC vs peptide dose, data in Supplementary Figure 7c, 37 °C, 90 min, read-out: Liposome permeabilization EC50) and around 5000 nM at I81R(3) BAK. Moreover, the values for the Kd at I81R BAK and at MEAS-BAK-His6 (1:1 interaction model) were 1340 nM and 506 ± 1 nM, respectively.

For “Ac-EDIIRNIARHLAQWGDSMDRSW-NH2 [W(3)W(5)]”, at Human BAK-∆TM-His6 (BAK) (listed as W(3)W(5) BID BH3 ligand), the “BAK activation or inhibition in liposome permeabilization” value is “fully inhibitory”. The “BAK activation or inhibition in liposome permeabilization” value on Human BAK-∆TM-His6 (BAK) (listed as W(3)W(5) BID BH3 peptide) is reported as “activates BAK efficiently at low doses, yet inhibits BAK at high doses”. At WT tevBAK (10 mg/mL BAK (0.5 mM) and 2 mM peptide, from KD of […]), the “% of BAK bound to peptide under crystallization conditions” value is listed as around 99.99%. Besides, on WT tevBAK (setting [2]), the “ITC -T∆S” value came out at 5.53 ± 1.6 kcal/mol, the “ITC ∆G” value was -9.02 ± 0.10 kcal/mol and the “ITC ∆H” value was -14.55 ± 1.76 kcal/mol. In addition, on WT tevBAK ([BID BH3] 1 μM, listed as W3W5 peptide), the “% bound” value was 80%. The “% bound” value on WT tevBAK ([BID BH3] 10 μM) is 97.5%. In addition, on MEAS-BAK-His6 (1:1 interaction model), the SPR kd was 2.41±0.01 ×10-2 s-1 and the Kd is 336 ± 1 nM. Also, the kon at MEAS-BAK-His6 (1:1 interaction model, read-out: SPR ka) is 71900 ± 100 M⁻¹ s⁻¹. Besides, at MEAS-BAK-His6 (~500 RU captured BAK), the “SPR Rmax” value is 79.2±0.1 RU.

What is called EC50 is the concentration giving half of the maximal effect. By Kd is commonly meant a measure of binding affinity in units of concentration.
